Columns and labels:
[1] = system: GPI-PLC of hcDIGs from rat adipocytes; test: adipocyte GPI-PLC assay (cleavage of AChE, TX-114 partitioning); type: biochemical; details: 1 mM; hcDIGs from rat adipocytes
Description: Biophys. […] Each reaction mixture was subjected to TX-114 partitioning (see below).
After incubation for 1 h on ice, the mixture was layered onto a cushion of 0.4 ml of 0.25 M sucrose and 25 mM Tris/HCl (pH 7.4) on ice.
Cleavage rate was calculated from the amount of hydrophilic AChE and aP activity recovered with the TX-114-depleted phase upon TX-114 partitioning.

rat adipocytes = test: isoproterenol-induced lipolysis measured as release of NBD-FA; type: cell-based; details: 50 µM; Fig. 9 Panels A, B
Description: Electroporation was performed as described in "Müller, G. et al., (2000) Mol. Cell. Biol. 20: 4708-4723". Lipolysis was determined as release of glycerol or fluorescent NBD-FA from prelabeled and isoproterenol-stimulated adipocytes as described in "Müller, G. et al., (2003) Biochimie 85: 1245-1256". Gce1 was detected by photolabeling of solubilized plasma membranes or hc/IcDIGs (10-50 µg protein) with 8-N3-[^32P]cAMP and subsequent phosphorimaging as described in "Müller, G. et al., (1994) Biochemistry 33: 12149-12159". 5'-Nuc, aP and AChE activities were measured according to "Eliakim, R. et al., (1990) Biochim. Biophys. Acta […]". Protein was determined using the BCA protein determination kit from Pierce (Rockford, IL) and BSA as calibration standard. SDS-PAGE was performed using precast gels (Novex, San Diego, CA; 10 % Bis-Tris resolving gel, morpholinopropanesulfonic acid-SDS running buffer). Lumiimages were evaluated on a Lumilmager using Lumilmager software (Roche Diagnostics). Phosphor- and fluorescence images were processed and quantified using the Storm 860 Phosphorlmager system (Molecular Dynamics, Gelsenkirchen, Germany). Figures were constructed using the Adobe Photoshop software (Adobe Systems, Mountain View, CA). […]

[2] = system: patients with type 2 diabetes; details: cited from earlier work

CCCCCCCCCCCCP(=O)(OC)O[C@@H]1[C@H](O)[C@H](O)[C@@H](O)[C@H](O)[C@H]1O (stereo partly drawn) [GPI-2349, myo-inositol-1-O-dodecylphosphonic acid methylester]
inhibition % at 1 mM [1]: 27 ± 6%

CCC1=C(C)CN(C(=O)NCCc2ccc(S(=O)(=O)NC(=O)N[C@H]3CC[C@H](C)CC3)cc2)C1=O [Glimepiride, glimepiride]
effect on the glimepiride-induced reduction of NBD-FA release (rat adipocytes): completely abrogated
activation of GPI-PLC (GPI-PLC; direct incubation of hcDIGs from untreated adipocytes, Fig. 4 Panel A): up to 4 fold
stimulation of GPI-PLC activity (GPI-PLC; hcDIGs prepared from pretreated adipocytes, Fig. 4 Panel C, 20 µM): 3 fold
hypoglycaemia occurred in patients ([2]; monotherapy, treated for ≤1 year): 10 to 20%
effective dosage range ([2]; patients with type 2 diabetes): 0.5 to 8 mg/day

Source: patent EP1566447A1, “Glimepiride- and insulin-induced glycosylphosphatidylinositol-specific phospholipase C regulation” (priority 2004, dated 2005)
